Measured values as given in patent US20120071475A1, “UREA DERIVATIVES HAVING PI3K-INHIBITING ACTIVITY” (SHIONOGI & CO., LTD., priority 2009, published 2012).

Legend:
PI3Kγ = PI3Kγ (Homo sapiens, UniProt P48736); experiment: PI3Kγ inhibitory activity (PI3-kinase HTRF assay, inhibition ratio); format: biochemical; conditions: 0.5 h, compound at 10 μmol/L; read-out: PI3Kg Inhibition Ratio % (10 μM)
Summary of the method: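 Compound at 10 μmol/L preincubated 10 min with PI3Kγ and PIP2 substrate, then reacted with ATP for 30 minutes at room temperature; the compound, substrate and ATP figures as printed (40 μmol/L each) are solution concentrations. HTRF 665/620 nm ratio read after 18 hours. Inhibition ratio calculated against no-compound (100%) and no-enzyme (0%) controls.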

hERG channel (IKr) = molecular target: T1, hERG channel (IKr) (Homo sapiens, UniProt Q12809); experiment: hERG test (whole-cell patch-clamp, IKr in HEK293 cells); format: cell-based; conditions: human, HEK293 cells expressing hERG channel, pH 7.4, inhibition of maximum tail current (IKr), compound 1 μM
T1 construct: expressed in transfected cells; host or cells: HEK293
Description: For the purpose of risk evaluation of QT interval extension of electrocardiogram, the activity on delayed rectification K^+ current (IKr), which plays an important role in a cardiac ventricle repolarization process, was examined using the HEK293 cell that was made to express human ether-a-go-go related gene (hERG) channel.
Using an automatic patch-clamp system (PatchXpress 7000A, Axon Instruments Inc.), by a whole-cell patch-clamp method, after the cell was maintained at a membrane potential of −80 mV, IKr induced upon applying depolarizing stimulation of +50 mV for 2 seconds and further applying repolarizing stimulation of −50 mV for 2 seconds was recorded. After generated electric current became stable, a test substance dissolved at an intended concentration in extracellular fluid (137 mmol/L NaCl, 4 mmol/L KCl, 1.8 mmol/L CaCl2.2H2O, 1 mmol/L MgCl2.6H2O, 10 mmol/L glucose, 10 mmol/L HEPES (4-(2-hydroxyethyl)-1-piperazineethanesulfonic acid), pH=7.4) was applied to the cell for 10 minutes under room temperature condition. From the obtained IKr, the absolute value of the maximum tail current was measured using analysis software (DataXpress ver. 1, Molecular Devices Corporation) and the value of the electric current in a maintained membrane potential as baseline. Moreover, an inhibition ratio for the maximum tail current prior to the application of the test substance was calculated and then compared with a group of media-application (0.1% dimethylsulfoxide solution) to evaluate influence of the test substance on IKr.

[1] = Metabolic stability test (pooled human liver microsome); format: in vitro ADME; conditions: percentage of test compound remained after 30 minutes, pooled human liver microsome 0.5 mg protein/mL, 1 mmol/L NADPH, 37° C., compound 0.5 μM
Summary of the method: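 Pooled human liver microsomes (0.5 mg protein/mL) incubated with compound and 1 mmol/L NADPH at 37° C. in pH 7.4 Tris buffer for 0 or 30 min. Parent quantified by LC/MS/MS after methanol/acetonitrile quench; value is % remaining at 30 min versus 0 min.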

AKT phosphorylation = AKT phosphorylation inhibitory activity in MCP-1 stimulated THP-1 cells (sandwich ELISA); format: cell-based, Human; conditions: Homo sapiens, compound at 1 μmol/L, MCP-1 stimulation, read-out: AKT phosphorylation inhibition ratio
Experimental: (1) The AKT phosphorylation inhibitory activity of a compound was evaluated according to the following procedure. (2) Human monocyte-like cell line THP-1 was washed with RPMI-1640 media, incubated in the presence of 5% CO2 at 37° C. for 3 hours, washed with Hank's balanced salt solution (HBSS), adjusted to a cell concentration of 6.7×10^6/mL, and then used in an experiment. (3) 30 μL of the cell suspension and 60 μL of each compound solution containing 0.2% DMSO/HBSS were mixed and then preincubated at 37° C. for 5 minutes. 30 μL of HBSS containing 1.2 μg/mL of MCP-1 was added thereto and then incubated for 60 seconds at 37° C. (4) 30 μL of a cell lysate (the final concentrations: 20 mmol/L Tris-HCl (pH 7.5), 150 mmol/L NaCl, 1 mmol/L EDTA, 1 mmol/L EDTA, 1% Triton X-100, 2.5 mmol/L sodium pyrophosphate, 1 mmol/L β-glycerophosphate, 1 mmol/L Na3VO4, 1 μg/ml leupeptin, 50 nmol/L APMSF) was added thereto to lyse cells. (5) The amount of AKT phosphorylation in the cell solution was measured by sandwich ELISA method using anti-Phospho-Akt (Ser473) antibody and anti-AKT1 antibody. (6) Anti-Phospho-Akt (Ser473) antibodies or anti-AKT1 antibodies were immobilized onto the solid phase of a micro well plate. The prepared cell lysate was added to the micro well plate, incubated, and then washed with ELISA wash solution. (7) An anti-AKT1 antibody or anti-Phospho-Akt (Ser473) antibody, which forms a counterpart to an antibody immobilized on the solid phase, was added thereto, incubated, washed similarly, and then reacted with an HRP-labeled anti-mouse IgG antibody. (8) After incubating for 30 minutes and then washing similarly, 100 μL of TMB (3,3′,5,5″-tetramethylbenzidine) was added thereto, followed by reacting for 30 minutes. (9) 100 μL of stop solution was added to quench the color reaction, and then the absorbance at 450 nm was measured. (10) The amount of AKT phosphorylation in a sample in the absence of a compound was defined as 100% activity, and the amount of AKT phosphorylation in a sample in the absence of MCP-1 was defined as 0% activity to calculate an inhibition ratio of each compound. The measurement was performed for a 1 μmol/L solution of each compound.

CYP3A4 = molecular target: T2, CYP3A4 (Homo sapiens, UniProt P08684); experiment: CYP3A4 fluorescence MBI test; format: in vitro ADME; conditions: difference in IC50 with 0 or 30 minutes pre-reaction; CYP3A4 expressed in E. coli, substrate 7-BFC
T2 construct: host or cells: E. coli
Experimental: The CYP3A4 fluorescence MBI test is a test to examine the enhancement of CYP3A4 inhibition of a compound by a metabolic reaction. The test was performed using as an index, a reaction to produce a metabolite 7-hydroxytrifluoromethylcoumarin (HFC) which emits fluorescence, in which CYP3A4 expressed in E. coli was used as an enzyme and 7-benzyloxytrifluoromethylcoumarin (7-BFC) is debenzylated by CYP3A4 enzyme.
The reaction conditions are as follows: substrate: 5.6 μmol/L 7-BFC; pre-reaction time; 0 or 30 minutes; reaction time: 15 minutes; reaction temperature: 25° C. (room temperature); content of CYP3A4 (an enzyme expressed in E. coli): […] at the time of a pre-reaction and […] (when diluted 10 times) at the time of a reaction; the concentrations of a test drug: 0.625, 1.25, 2.5, 5, 10, and 20 μmol/L (6 points).
In a 96-well plate, an enzyme solution and a test drug solution were added as a pre-reaction solution into K-Pi buffer solution (pH 7.4) in the aforementioned ratio. A portion thereof was transferred to another 96-well plate to be diluted ten times with a substrate and a K-Pi buffer solution. A coenzyme, NADPH, was then added to start a reaction, which is the index (this is without a pre-reaction). After reacting for a predetermined time, 4:1 of acetonitrile: 0.5 mol/L Tris (trishydroxyaminomethane) was added to quench the reaction. To the remaining pre-reaction solution, NADPH was added to start a pre-reaction (this is with a pre-reaction). After pre-reacting for a predetermined time, a portion thereof was transferred to another plate to be diluted ten times with a substrate and K-Pi buffer solution, and thereby the index reaction is started. After reacting for a predetermined time, 4:1 of acetonitrile:0.5 mol/L Tris (trishydroxyaminomethane) was added to quench the reaction. For each plate in which the index reaction was carried out, the fluorescence value of a metabolite 7-HFC was measured with a fluorescent plate reader (Ex=420 nm, Em=535 nm).
The case wherein only DMSO (a solvent which dissolved a drug) was added to a reaction system was defined as a control (100%). When a test drug solution was added, the remaining activity (%) at each concentration was calculated, and then IC50 was calculated with a concentration and an inhibition ratio by an inverse estimation using a logistic model. When the difference in IC50 value is 5 μmol/L or more, the compound is shown as (+). When 3 μmol/L or less, the compound is shown as (−).

T1 sequence (Q12809 whole entry): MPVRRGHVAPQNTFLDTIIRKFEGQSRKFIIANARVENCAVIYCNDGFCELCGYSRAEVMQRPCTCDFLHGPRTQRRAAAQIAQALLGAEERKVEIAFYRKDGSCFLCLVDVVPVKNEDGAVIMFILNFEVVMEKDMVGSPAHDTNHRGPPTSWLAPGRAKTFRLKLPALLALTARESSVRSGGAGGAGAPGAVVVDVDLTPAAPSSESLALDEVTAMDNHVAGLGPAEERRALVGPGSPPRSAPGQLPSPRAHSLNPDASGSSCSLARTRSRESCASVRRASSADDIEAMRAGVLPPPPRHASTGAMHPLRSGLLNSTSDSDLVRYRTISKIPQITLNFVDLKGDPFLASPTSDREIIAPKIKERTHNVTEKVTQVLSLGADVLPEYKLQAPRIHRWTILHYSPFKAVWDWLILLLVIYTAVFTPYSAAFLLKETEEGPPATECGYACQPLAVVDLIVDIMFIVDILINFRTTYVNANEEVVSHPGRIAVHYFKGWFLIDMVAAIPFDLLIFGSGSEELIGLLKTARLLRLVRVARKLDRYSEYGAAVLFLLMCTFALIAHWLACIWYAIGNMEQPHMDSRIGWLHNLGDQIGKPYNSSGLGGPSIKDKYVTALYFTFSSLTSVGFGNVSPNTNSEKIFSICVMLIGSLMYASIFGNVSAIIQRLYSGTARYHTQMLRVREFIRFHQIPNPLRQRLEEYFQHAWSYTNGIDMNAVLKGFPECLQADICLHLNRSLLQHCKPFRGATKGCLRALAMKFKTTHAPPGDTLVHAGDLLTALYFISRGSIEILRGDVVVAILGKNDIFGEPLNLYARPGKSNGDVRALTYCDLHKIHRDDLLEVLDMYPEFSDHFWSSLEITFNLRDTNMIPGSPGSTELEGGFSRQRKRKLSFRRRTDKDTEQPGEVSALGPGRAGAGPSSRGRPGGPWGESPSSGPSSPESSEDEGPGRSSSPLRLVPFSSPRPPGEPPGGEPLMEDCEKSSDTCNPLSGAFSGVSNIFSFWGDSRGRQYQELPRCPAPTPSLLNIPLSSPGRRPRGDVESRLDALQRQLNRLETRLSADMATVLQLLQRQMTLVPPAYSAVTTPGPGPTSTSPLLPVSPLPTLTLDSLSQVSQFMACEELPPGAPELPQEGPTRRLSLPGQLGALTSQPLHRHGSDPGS
T2 sequence (P08684 whole entry): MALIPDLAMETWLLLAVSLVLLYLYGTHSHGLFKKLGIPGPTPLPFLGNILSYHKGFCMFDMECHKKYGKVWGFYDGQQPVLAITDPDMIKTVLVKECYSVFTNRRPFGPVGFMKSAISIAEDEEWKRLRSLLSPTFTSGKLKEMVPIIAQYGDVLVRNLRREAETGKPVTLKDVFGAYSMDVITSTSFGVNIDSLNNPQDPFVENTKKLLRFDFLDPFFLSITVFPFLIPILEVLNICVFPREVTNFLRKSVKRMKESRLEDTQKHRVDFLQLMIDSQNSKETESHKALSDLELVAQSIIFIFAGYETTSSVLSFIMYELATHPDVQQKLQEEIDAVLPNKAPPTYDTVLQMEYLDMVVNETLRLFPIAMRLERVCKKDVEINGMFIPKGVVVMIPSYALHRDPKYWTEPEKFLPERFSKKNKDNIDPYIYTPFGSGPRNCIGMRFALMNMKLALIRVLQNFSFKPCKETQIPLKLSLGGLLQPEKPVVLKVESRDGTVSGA
Chain of PI3Kγ (P48736 whole entry, species assumed): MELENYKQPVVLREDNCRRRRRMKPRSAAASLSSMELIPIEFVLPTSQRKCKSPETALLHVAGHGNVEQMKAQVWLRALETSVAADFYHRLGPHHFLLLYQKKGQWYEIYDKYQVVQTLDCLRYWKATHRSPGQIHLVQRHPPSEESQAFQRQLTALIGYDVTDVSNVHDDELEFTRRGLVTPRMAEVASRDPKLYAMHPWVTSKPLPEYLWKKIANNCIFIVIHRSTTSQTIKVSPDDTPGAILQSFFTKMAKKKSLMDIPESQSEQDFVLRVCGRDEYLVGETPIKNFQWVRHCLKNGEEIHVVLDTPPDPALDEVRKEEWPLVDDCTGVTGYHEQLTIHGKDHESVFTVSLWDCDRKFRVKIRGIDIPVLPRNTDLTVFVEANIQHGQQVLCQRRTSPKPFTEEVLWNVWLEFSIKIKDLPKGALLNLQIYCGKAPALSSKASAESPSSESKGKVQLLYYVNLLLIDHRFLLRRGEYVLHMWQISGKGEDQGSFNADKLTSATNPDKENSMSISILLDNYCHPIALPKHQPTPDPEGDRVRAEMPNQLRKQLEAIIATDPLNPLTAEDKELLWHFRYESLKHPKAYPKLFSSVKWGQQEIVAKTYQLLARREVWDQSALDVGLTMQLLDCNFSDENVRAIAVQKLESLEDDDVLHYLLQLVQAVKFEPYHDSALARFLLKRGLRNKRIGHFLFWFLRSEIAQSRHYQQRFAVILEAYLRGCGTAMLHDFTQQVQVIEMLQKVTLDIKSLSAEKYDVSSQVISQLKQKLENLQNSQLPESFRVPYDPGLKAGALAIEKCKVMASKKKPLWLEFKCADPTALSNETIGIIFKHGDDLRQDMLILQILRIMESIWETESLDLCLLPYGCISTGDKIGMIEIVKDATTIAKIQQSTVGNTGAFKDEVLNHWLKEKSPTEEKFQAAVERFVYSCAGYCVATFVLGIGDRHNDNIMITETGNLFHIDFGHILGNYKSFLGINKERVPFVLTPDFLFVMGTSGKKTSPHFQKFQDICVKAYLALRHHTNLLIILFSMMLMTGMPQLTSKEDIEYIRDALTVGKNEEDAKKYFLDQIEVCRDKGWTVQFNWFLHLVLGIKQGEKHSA

| inhibition at 10 µM (PI3Kγ) [%] | hLMS_ox(at 0.5 μM) % [1] [%] | SMILES | inhibition at 10 min, 1 µM (hERG channel (IKr)) [%] | inhibition at 1 µM (AKT phosphorylation) [%] | MBI (CYP3A4) |
| --- | --- | --- | --- | --- | --- |
| ≥ 95 | – | CC(C)NC(=O)c1ccccc1NC(=O)Nc1nc2c(s1)CN(c1cncc(S(C)(=O)=O)c1)CC2 [Compound I-166] | 1.8 | 76 | – |
| ≥ 95 | – | CC(C)NC(=O)c1nn(C)cc1NC(=O)Nc1nc2c(s1)CN(c1cncc(C#N)c1)CC2 [Compound I-205] | 0.2 | 90 | – |
| ≥ 95 | – | COC(=O)[C@H](CO)NC(=O)c1nn(C)cc1NC(=O)Nc1nc2c(s1)CN(c1cc(OC)nc(OC)n1)CC2 [Compound I-167] | – | ≥ 95 | – |
| ≥ 95 | – | COc1cc(N2CCc3nc(NC(=O)Nc4ccccc4C(=O)NC4CCCOC4)sc3C2)nc(OC)n1 (centres unmarked) [Compound I-160] | – | ≥ 95 | – |
| ≥ 95 | 94.4 | Cc1cc(N2CCc3nc(NC(=O)Nc4ccccc4C(=O)N[C@H](C)CO)sc3C2)nc(Cl)n1 [Compound I-169] | 2.7 | 75 | – |
| 91 | – | CS(=O)(=O)c1cncc(N2CCc3nc(NC(=O)Nc4ccccc4C(=O)NCC#N)sc3C2)c1 [Compound I-210] | – | 93 | (−) (When 3 μmol/L or less, the compound is shown as (−)) |
| 92 | 91.2 | COc1cc(N2CCc3nc(NC(=O)Nc4ccccc4C(=O)NN4CCOCC4)sc3C2)nc(OC)n1 [Compound I-193] | – | 81 | – |
| ≥ 95 | – | COc1cc(N2CCc3nc(NC(=O)Nc4ccccc4C(=O)NC4CCCCC4O)sc3C2)nc(OC)n1 (centres unmarked) [Compound I-161] | 6.1 | 93 | – |
| 77 | 85.6 | COc1cc(N2CCc3nc(NC(=O)Nc4ccccc4C(=O)NC(C)C#N)sc3C2)nc(OC)n1 (centres unmarked) [Compound I-159] | 3.8 | ≥ 95 | – |

More lines, now with the values behind:

| SMILES | inhibition at 10 µM (PI3Kγ) [%] | hLMS_ox(at 0.5 μM) % [1] [%] | inhibition at 10 min, 1 µM (hERG channel (IKr)) [%] | inhibition at 1 µM (AKT phosphorylation) [%] | MBI (CYP3A4) |
| --- | --- | --- | --- | --- | --- |
| COc1cc(N2CCc3nc(NC(=O)Nc4ccccc4C(=O)NCC(C)O)sc3C2)nc(OC)n1 (centres unmarked) [Compound I-157] | 87 | 96.2 | 0.4 | ≥ 95 | – |
| COc1cc(N2CCc3nc(NC(=O)Nc4cnccc4C(=O)NC(C)C)sc3C2)nc(OC)n1 [Compound I-27] | ≥ 95 | – | 2 | 94.1 | (−) (When 3 μmol/L or less, the compound is shown as (−)) |
| COc1cc(N2CCc3nc(NC(=O)Nc4ccccc4C(=O)NC4CCOC4)sc3C2)nc(OC)n1 (centres unmarked) [Compound I-135] | ≥ 95 | 85.8 | 1.8 | 89 | – |
| COc1cc(N2CCc3nc(NC(=O)Nc4cnccc4OCCC(C)C)sc3C2)nc(OC)n1 [Compound I-97] | ≥ 95 | – | – | 80.4 | (−) (When 3 μmol/L or less, the compound is shown as (−)) |
| [2H]C([2H])([2H])[C@@H](CO)NC(=O)c1ccccc1NC(=O)Nc1nc2c(s1)CN(c1cc(OC)nc(OC)n1)CC2 [Compound I-154] | ≥ 95 | 98.7 | – | ≥ 95 | – |
| COc1cc(N2CCc3nc(NC(=O)Nc4ccccc4C(=O)NC4CCCC4O)sc3C2)nc(OC)n1 (centres unmarked) [Compound I-134] | ≥ 95 | 88.4 | 1.7 | 93 | – |
| COc1cc(N2CCc3nc(NC(=O)Nc4cn(C)nc4C(=O)NC4CCOC4)sc3C2)nc(OC)n1 (centres unmarked) [Compound I-156] | 80 | – | 2.7 | ≥ 95 | – |
| COc1cc(N2CCc3nc(NC(=O)Nc4ccccc4C(=O)NC(C)(C)C)sc3C2)nc(OC)n1 [Compound I-7] | 93 | – | – | 77.6 | – |
| COc1cc(N2CCc3nc(NC(=O)Nc4cn(C)nc4C(=O)NCC#N)sc3C2)nc(OC)n1 [Compound I-152] | ≥ 95 | 96.8 | 4.7 | ≥ 95 | – |
| COc1cc(N2CCc3nc(NC(=O)Nc4cn(C)nc4C(=O)N[C@@H](C)CO)sc3C2)nc(OC)n1 [Compound I-155] | 90 | 95.9 | 2.9 | ≥ 95 | – |
| [2H]C([2H])([2H])C([2H])(NC(=O)c1ccccc1NC(=O)Nc1nc2c(s1)CN(c1cc(OC)nc(OC)n1)CC2)C([2H])([2H])[2H] [Compound I-153] | ≥ 95 | 83 | – | ≥ 95 | (−) (When 3 μmol/L or less, the compound is shown as (−)) |
| COc1cc(N2CCc3nc(NC(=O)Nc4ccccc4C(=O)NC(C)C(F)(F)F)sc3C2)nc(OC)n1 (centres unmarked) [Compound I-136] | ≥ 95 | – | – | 84 | – |
